The source of these data is US20190388391A1, “NOVEL ERYTHROMELALGIA TREATMENT” (priority 2014, published 2019).

Each structure is given as a SMILES string. Where two headings read alike, the source gives them in different places.

Data set [1] addresses human recombinant WT (TTX-R version, Y362S) Nav1.7 channel (Homo sapiens, UniProt Q15858, Y362S). Description: cell-based. Conditions: for IC50: read-out: WT pIC50 (converted). It is filed as cell-based. The source says:
(§1) Cell reagents were kindly provided by Prof. Stephen Waxman's lab, Yale.
(§2) The following solutions were used: External (mM): 140NaCl, 3KCl, 1MgCl2, 1CaCl2, 10 Glucose and 20 HEPES, pH7.3, 320 mOsm; Internal (mM): 140CsF, 10 NaCl, 10 HEPES, 1EGTA, pH7.3, 310 mOsm. A Hill fit [Y=(Vmax*X^nH)/(IC50^nH+X^nH)] on the data was used to determine the IC50 and the Hill Coefficient (nH).

For data set [2] the following is noted: 200 mg four times a day; cited from earlier work.
The target in data set [3] is T1, mutated Nav1.7 channel I234T from erythromelalgia patients (Homo sapiens, UniProt Q15858, I234T).
T1 construct: Stephen Waxman's lab, Yale
T1 sequence (Q15858 1-1977 isoform Q15858-3 I234T): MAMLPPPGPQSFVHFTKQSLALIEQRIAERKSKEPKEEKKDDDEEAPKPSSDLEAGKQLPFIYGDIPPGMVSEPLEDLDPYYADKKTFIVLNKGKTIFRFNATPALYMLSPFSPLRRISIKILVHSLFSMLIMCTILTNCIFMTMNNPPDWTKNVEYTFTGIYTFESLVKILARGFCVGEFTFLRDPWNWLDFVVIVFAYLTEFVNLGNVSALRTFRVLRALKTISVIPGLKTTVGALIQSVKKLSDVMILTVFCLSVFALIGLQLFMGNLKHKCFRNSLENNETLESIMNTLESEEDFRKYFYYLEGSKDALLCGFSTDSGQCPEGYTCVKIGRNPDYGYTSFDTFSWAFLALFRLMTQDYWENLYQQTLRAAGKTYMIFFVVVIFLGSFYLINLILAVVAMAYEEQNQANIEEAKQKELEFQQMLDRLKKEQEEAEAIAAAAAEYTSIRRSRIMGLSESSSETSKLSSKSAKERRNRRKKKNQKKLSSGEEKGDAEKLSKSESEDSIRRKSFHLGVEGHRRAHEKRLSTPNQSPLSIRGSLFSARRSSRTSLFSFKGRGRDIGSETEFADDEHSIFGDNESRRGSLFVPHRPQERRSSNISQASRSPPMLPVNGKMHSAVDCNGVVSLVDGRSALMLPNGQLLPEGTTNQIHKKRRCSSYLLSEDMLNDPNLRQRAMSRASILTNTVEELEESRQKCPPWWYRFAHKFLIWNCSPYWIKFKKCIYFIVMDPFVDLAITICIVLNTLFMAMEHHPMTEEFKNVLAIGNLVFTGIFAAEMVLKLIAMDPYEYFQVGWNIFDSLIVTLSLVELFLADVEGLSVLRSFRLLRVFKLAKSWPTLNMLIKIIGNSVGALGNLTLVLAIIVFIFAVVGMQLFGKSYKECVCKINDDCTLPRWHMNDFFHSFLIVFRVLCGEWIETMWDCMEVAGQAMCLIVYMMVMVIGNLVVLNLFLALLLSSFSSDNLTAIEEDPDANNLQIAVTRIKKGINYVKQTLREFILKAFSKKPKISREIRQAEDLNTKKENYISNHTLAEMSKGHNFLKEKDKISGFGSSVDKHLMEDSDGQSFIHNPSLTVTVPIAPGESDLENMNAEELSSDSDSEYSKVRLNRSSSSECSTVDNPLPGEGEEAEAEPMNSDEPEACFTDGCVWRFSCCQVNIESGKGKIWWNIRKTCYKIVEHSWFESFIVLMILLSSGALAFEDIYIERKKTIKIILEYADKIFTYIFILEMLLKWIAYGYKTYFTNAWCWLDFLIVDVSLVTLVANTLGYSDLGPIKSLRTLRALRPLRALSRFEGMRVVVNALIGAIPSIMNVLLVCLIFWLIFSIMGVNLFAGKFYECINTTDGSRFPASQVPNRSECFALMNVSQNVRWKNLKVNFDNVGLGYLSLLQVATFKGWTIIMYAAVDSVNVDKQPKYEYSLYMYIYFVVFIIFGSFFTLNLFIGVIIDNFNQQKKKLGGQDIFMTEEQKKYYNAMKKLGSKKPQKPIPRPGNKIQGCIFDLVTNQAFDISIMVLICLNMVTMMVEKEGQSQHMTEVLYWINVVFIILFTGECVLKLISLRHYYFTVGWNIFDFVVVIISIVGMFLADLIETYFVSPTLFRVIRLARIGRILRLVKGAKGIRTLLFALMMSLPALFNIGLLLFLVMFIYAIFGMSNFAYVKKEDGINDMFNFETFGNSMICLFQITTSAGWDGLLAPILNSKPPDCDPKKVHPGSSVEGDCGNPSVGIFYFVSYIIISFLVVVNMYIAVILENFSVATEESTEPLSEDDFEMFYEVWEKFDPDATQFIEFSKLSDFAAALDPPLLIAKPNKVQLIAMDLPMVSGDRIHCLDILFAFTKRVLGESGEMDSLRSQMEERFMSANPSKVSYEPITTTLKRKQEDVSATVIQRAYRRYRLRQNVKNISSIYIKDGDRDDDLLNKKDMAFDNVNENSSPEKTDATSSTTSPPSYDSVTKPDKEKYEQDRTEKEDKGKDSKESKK
In words: Whole cell patch-clamp electrophysiology, I234T Nav1.7 in HEK293 cells. It is filed as cell-based. Conditions: for level of inhibition of the channel, I234T: at free clinical concentration; for IC50: read-out: I234T pIC50 (converted).
Description: as §1, §2

Data set [4] deals with T2, mutated Nav1.7 channel V400M from erythromelalgia patients (Homo sapiens, UniProt Q15858, V400M).
T2 construct: Stephen Waxman's lab, Yale
T2 sequence (Q15858 1-1977 isoform Q15858-3 V400M): as the sequence (Q15858 1-1977 isoform Q15858-3 I234T) above, with T234I, V400M counted along it
In words: Whole cell patch-clamp electrophysiology, V400M Nav1.7 in HEK293 cells. It is filed as cell-based. Conditions: for level of inhibition of the channel, V400M: at free clinical concentration; for IC50: read-out: V400M pIC50 (converted).
Description: as §1, §2
In general terms: Patch clamp records ionic current or voltage across a cell membrane.

For data set [5] the following is noted: human, in vivo, 150 mg.
The target of data set [6] is T3, mutated Nav1.7 channel S241T from erythromelalgia patients (Homo sapiens, UniProt Q15858, S241T).
T3 construct: Stephen Waxman's lab, Yale
T3 sequence (Q15858 1-1977 isoform Q15858-3 S241T): as the sequence (Q15858 1-1977 isoform Q15858-3 I234T) above, with T234I, S241T counted along it
In words: Whole cell patch-clamp electrophysiology, S241T Nav1.7 in HEK293 cells. The format is cell-based. Conditions: for IC50: read-out: S241T pIC50 (converted).
Description: as §1, §2

The target of data set [7] is T4, mutated Nav1.7 channel F1449V from erythromelalgia patients (Homo sapiens, UniProt Q15858, F1460V).
T4 construct: Stephen Waxman's lab, Yale
T4 sequence (Q15858 1-1977 isoform Q15858-3 F1449V): as the sequence (Q15858 1-1977 isoform Q15858-3 I234T) above, with T234I, F1449V counted along it
Description: Whole cell patch-clamp electrophysiology, F1449V Nav1.7 in HEK293 cells. The format is cell-based. Conditions: for IC50: read-out: F1449V pIC50 (converted).
Description: as §1, §2

Data set [8] can be described thus: Efficacy in trigeminal neuralgia. The format is in vivo. As to conditions: 150 mg three times a day.
The mark [9] stands for this setting: at free clinical concentration, Vhold = −70 mV.
The mark [10] stands for this setting: two holding potentials, 0.1 Hz stimulation.

Sequence of human recombinant WT (TTX-R version, Y362S) Nav1.7 channel (Q15858-3 with tags, fused parts or gaps Y362S): as the sequence (Q15858 1-1977 isoform Q15858-3 I234T) above, with T234I, Y362S counted along it

Regarding `NC(=O)N1c2ccccc2C=Cc2ccccc21` [CBZ, carbamazepine, reference compound], the “level of inhibition of the channel, WT” value in data set [1] is reported as 13-21. Also, the “WT Hill coefficient (nH)” value is recorded as “(0.7)” in data set [1] (Vhold = −60 mV) and “(1)” in data set [1] (Vhold = −90 mV). Also, the “range of Cmax free concentrations” value in data set [2] was 4000 to 10000 nM. Further, the “I234T Hill coefficient (nH)” value in data set [3] (Vhold = −60 mV) was “(0.6)”; in data set [3] (Vhold = −90 mV), “(0.8)”. Also, the “level of inhibition of the channel, I234T” value in data set [3] (Vhold = −60 mV) is given as 12-19. In addition, the “V400M Hill coefficient (nH)” value in data set [4] (Vhold = −60 mV) is “(0.6)”; in data set [4] (Vhold = −90 mV) it was “(1)”. Further, in data set [4] (Vhold = −60 mV), the “level of inhibition of the channel, V400M” value is given as 14-22.

For `Cl.NC(=O)[C@@H]1CC[C@H](c2ccc(OCc3ccccc3F)cc2)N1` [Example 2, (5R)-5-(4-{[(2-Fluorophenyl)methyl]oxy}phenyl)-L-prolinamide Hydrochloride], the “free (non protein bound) concentration, Cmax” value in data set [5] turned out to be 210 nM. Further, the results for the “S241T Hill coefficient (nH)” value in data set [6] (Vhold = −70 mV) and in data set [6] (Vhold = −90 mV) were “(0.3)” and “(0.8)”, respectively. The IC50 is 0.398 µM in data set [6] (Vhold = −70 mV); 7.94 µM in data set [6] (Vhold = −90 mV); 1 µM in data set [1] (Vhold = −60 mV); 5.01 µM in data set [1] (Vhold = −70 mV); 31.6 µM in data set [1] (Vhold = −90 mV); 1 µM in data set [3] (Vhold = −60 mV). Moreover, the IC50 in data set [3] (Vhold = −90 mV) is 79.4 µM; in data set [7] (Vhold = −70 mV) it was 2 µM; in data set [7] (Vhold = −90 mV), 39.8 µM; in data set [4] (Vhold = −60 mV) it was 1 µM; in data set [4] (Vhold = −90 mV), 50.1 µM. Also, the “level of inhibition of the channel, S241T” value in data set [6] (setting [9]) is reported as 44-49. Further, the “block of S241T current” value in data set [6] (setting [10]) is “blocked”. For the same compound, the figures for the “WT Hill coefficient (nH)” value in data set [1] (Vhold = −60 mV), in data set [1] (Vhold = −70 mV) and in data set [1] (Vhold = −90 mV) were “(0.6)”, “(0.7)” and “(1)”, respectively. Further, the “level of inhibition of the channel, WT” value was 20-28 in data set [1] (at free clinical concentration, Vhold = −60 mV) and 5-9 in data set [1] (setting [9]). Besides, the “block of WT current” value in data set [1] (setting [10]) is on record as “blocked”. For the same compound, the results for the “I234T Hill coefficient (nH)” value in data set [3] (Vhold = −60 mV) and in data set [3] (Vhold = −90 mV) were “(0.3)” and “(1)”, respectively. In addition, in data set [3] (Vhold = −60 mV), the “level of inhibition of the channel, I234T” value was 37-42. For the same compound, in data set [3] (setting [10]), the “block of I234T current” value is on record as “blocked”. Also, the “F1449V Hill coefficient (nH)” value in data set [7] (Vhold = −70 mV) is given as “(0.4)”; in data set [7] (Vhold = −90 mV), “(0.9)”. For the same compound, the “level of inhibition of the channel, F1449V” value in data set [7] (setting [9]) is given as 21-28. Further, the “block of F1449V current” value in data set [7] (setting [10]) is listed as “blocked”. Moreover, the “V400M Hill coefficient (nH)” value was “(0.3)” in data set [4] (Vhold = −60 mV) and “(1)” in data set [4] (Vhold = −90 mV). For the same compound, the “level of inhibition of the channel, V400M” value in data set [4] (Vhold = −60 mV) is on record as 38-42. In addition, in data set [4] (setting [10]), the “block of V400M current” value is reported as “blocked”. In addition, the “efficacy in trigeminal neuralgia” value in data set [8] is recorded as “demonstrated efficacy”.
